From patent publication US6887873B2, “Triazine derivatives and their application as antitelomerase agents” (Aventis Pharma S.A., priority 2001, dated 2005)

Tests used:
[1] = system: A549 cells; assay: Cytotoxic activity on human tumour line A549, neutral red, 96 hours; format: cell-based; details: Homo sapiens, A549, A549; read-out: Cytotox. A549 IC50
Experimental: The cytotoxic biological activity on human tumour lines is determined according to the following experimental protocol:
The human cell lines A549 are obtained from ATCC (American Type Culture Collection, Rockville, USA). The A549 cells are cultured in a layer in a culture flask in RPMI 1640 medium containing L-glutamine at 2 mM, penicillin 200 U/ml, streptomycin 200 μg/ml and supplemented with 10% heat-inactivated foetal calf serum. The KB cells are cultured in a layer in a culture flask in Dulbelco's medium containing L-glutamine at 2 mM, penicillin 200 U/ml, streptomycin 200 μg/ml and supplemented with 10% heat-inactivated foetal calf serum.
The cells at the exponential growth phase are trypsinized, washed in 1×PBS and are inoculated in 96-well microplates (Costar) in an amount of 4×10^4 cells/ml for A549 and of 1.5×10^4 cells/ml (0.2 ml/well) and then incubated for 96 hours in the presence of variable concentrations of product to be studied (10, 1, 0.1 and 0.01 μM, each point in quadruplicate). 16 hours before the end of the incubation, 0.02% final of neutral red is added to each well. At the end of the incubation, the cells are washed with 1×PBS and lysed with 1% sodium lauryl sulphate. The cellular incorporation of the dye, which reflects cellular growth, is evaluated by spectro-photometry at a wavelength of 540 nm for each sample with the aid of a Dynatech MR5000 reading apparatus.
For each compound concentration tested, the results are expressed as percentage of inhibition of cellular growth and calculated from the untreated control and the culture medium free of cells (blank) according to the following formula: (compound value−blank value/cell control value−blank value)×100.
The concentration of compound inducing a 50% inhibition of growth (IC50) is determined with the aid of a semilogarithmic graphical representation of the inhibition values obtained as a function of each of the compound concentrations tested.
A compound is considered to be active as cytotoxic agent if the concentration inhibiting the growth of the tumour cells tested by 50% is in particular less than 10 μM.

[2] = system: human telomerease (HL60 cell extract); assay: Antitelomerease activity: extension of oligonucleotide TS followed by PCR amplification, with HL60 extract; format: biochemical; details: read-out: TRAP IC50
Procedure, shortened: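 HL60 CHAPS-lysate extract extends TS primer (15 min, 30 °C) with compound at 10, 1, 0.1 and 0.01 µM, followed by 30-cycle PCR with TS and CXext. Products resolved on 12% acrylamide and quantified; % inhibition versus enzyme control and blank, IC50 read from semilog plot.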

Row | SMILES | IC50 [1] | IC50 [2]
1 | Cc1cc(N(C)C)c2cc(Nc3nc(Nc4ccc5nc(C)cc(N(C)C)c5c4)nc(-c4ccccc4)n3)ccc2n1 [Example 134, 2,4-bis(4-dimethylamino-2-methylquinolin-6-yl)amino-6-phenyl-[1,3,5]triazine] | 0.88 µM | –
2 | Cc1cc(N)c2cc(Nc3nc(Nc4ccc5nc(C)cc(N)c5c4)nc(Nc4ccccn4)n3)ccc2n1 [Example 89] | 20 µM | 1.2 µM
3 | Cc1cc(N)c2cc(Nc3nc(Nc4ccc5nc(C)cc(N)c5c4)nc(Sc4ccccc4)n3)ccc2n1 [Example 117] | 19.5 µM | –
4 | Cc1cc(N)c2cc(Nc3nc(NCc4ccc(N(C)C)cc4)nc(Nc4ccc5nc(C)cc(N)c5c4)n3)ccc2n1 [Example 85] | 16 µM | 3.9 µM
5 | COc1ccc(CNc2nc(Nc3ccc4nc(C)cc(N)c4c3)nc(Nc3ccc4nc(C)cc(N)c4c3)n2)cc1 [Example 83] | 14 µM | 1.2 µM
6 | Cc1cc(N)c2cc(Nc3nc(Nc4ccc5nc(C)cc(N)c5c4)nc(N4CCN(c5ccc6ccccc6n5)CC4)n3)ccc2n1 [Example 71] | 12.4 µM | 0.35 µM
